Experimental data: a melting point compilation (Tetko et al.)

melting point [°C]	Structure (SMILES)
202 to 204	CN(C)S(=O)(=O)c1ccc2[nH]c(=O)oc2c1
123 to 125	CCn1c(Cl)nnc1-c1ccccc1Cl
54 to 56	CCC(C)n1nc(N)cc1C (stereo unspecified)
103 to 105	CC(N)(C(N)=O)c1cccc(Cl)c1 (stereo unspecified)
203 to 205	CC(C)CC(N)c1nc(-c2nnc[nH]2)no1 (stereo unspecified)
114 to 116	N#Cc1ccc(-n2nccc2N)cc1
139 to 141	CC(C)(C)Oc1ccc(C(=O)O)cn1
115 to 116	Clc1ccc(N2CCCC2)nn1
99 to 101	Cc1cncc(CCC(=O)O)c1
76 to 78	CCC1(c2ccc(C)cc2)CC(=O)NC1=O (stereo unspecified)
73 to 75	N#CC1(c2ccc3c(c2)OCO3)CC1
237 to 239	Cc1nn(-c2ccccn2)c2nc(C3CC3)cc(C(=O)O)c12
175 to 177	O=C(CCl)NCc1cccc(NC(=O)C2CC2)c1
168 to 170	CC(Oc1ccc(C=CC(=O)O)cc1F)c1ccccc1 (stereo unspecified)
43 to 45	Cc1cc(CS(=O)(=O)Cl)no1
39 to 41	NCc1ccnc(NC2CC2)c1
175 to 177	O=C(O)C(Cn1ccc(C(F)(F)F)n1)NC1CC1 (stereo unspecified)
246 to 248	COc1ccc(-c2cnnc(N)n2)cc1
103 to 105	CC1(C)CC(=O)NC1=O
154 to 156	Cc1ccc(S(=O)(=O)N2CCCCC2)cc1S(=O)(=O)Cl
129 to 131	Nc1ccc(Cl)nc1N
281 to 283	Cc1cccc2c(O)c(C(=O)O)cnc12
179 to 181	O=[N+]([O-])c1ccc2c(c1)S(=O)(=O)C=C2
279 to 281	CC(c1ccncc1)n1nccc1N (stereo unspecified)

melting point [°C]	Structure (SMILES)
149 to 151	COc1cc(N)cc(OC)c1Br
149 to 151	O=C(O)c1cnoc1-c1ccccc1
141 to 143	O=C(O)C1CC1c1ccc(Cl)c(Cl)c1 (stereo unspecified)
163 to 165	CN(C)S(=O)(=O)c1ccc(F)c(C(=O)O)c1
61 to 63	Nc1ccc(N2CCc3sccc3C2)cc1
170 to 172	NC(=O)CNC(=O)c1cccc(N)c1
99 to 101	NC1CCN(c2cccc(Cl)c2)C1=O (stereo unspecified)
161 to 163	Nc1ccc(F)c(S(=O)(=O)Nc2ccc(Br)cc2)c1
68 to 70	CCOC(=O)N1CCCC(C(=O)O)C1 (stereo unspecified)
89 to 91	CN[C@@H]1CN(C(=O)OC(C)(C)C)C[C@H]1O
160 to 162	CC(C)(C)Cc1nc(-c2cccc(C(=O)O)c2)no1
163 to 165	COc1ccc(Br)cc1C(N)C(=O)O (stereo unspecified)
120 to 122	COc1ccc(-c2nc(N)sc2C)cc1
166 to 168	Nc1ccc(NC(=O)c2cccs2)cc1
187 to 189	Cc1c(-c2ccccc2)sc(N)c1C(=O)N1CCOCC1
163 to 165	NC(=O)c1cccc(O)c1
57 to 59	O=S(=O)(Cl)c1cccc(-c2cccs2)c1
168 to 170	NC1CCc2[nH]ncc2C1 (stereo unspecified)
42 to 44	CNC(=O)c1cccc(Cl)n1
46 to 48	C#CCN1C(=O)C=CC1=O
34 to 36	CCn1nc(C)c(S(=O)(=O)Cl)c1C
215 to 217	Cc1cc(N)n(C2CCS(=O)(=O)C2)n1 (stereo unspecified)
36 to 40	NCC(O)CN1CCOCC1 (stereo unspecified)
73 to 75	CC(C)NC(=S)N(C)C

melting point [°C]	Structure (SMILES)
181 to 183	COc1cccc(-c2nnn[nH]2)c1
72 to 74	COCCNC(N)=O
85 to 87	O=C(O)C1COc2ccc(Cl)cc2C1 (stereo unspecified)
27 to 29	CC(N)c1cccc(S(N)(=O)=O)c1 (stereo unspecified)
271 to 273	Sc1ncnc2ccsc12
229 to 231	CS(=O)(=O)c1cc(C(=O)O)cc([N+](=O)[O-])c1
134 to 136	Cc1ccc(-c2ccsc2C(=O)O)cc1
210 to 212	O=c1cc(C(F)(F)F)[nH]c(=O)[nH]1
132 to 134	NCc1cccc(NC(=O)c2ccc(F)cc2)c1
149 to 151	N#Cc1ccc(O)c(N)c1
85 to 87	O=C(O)CCOc1cccc(Cl)c1
141 to 143	O=C1CCCS(=O)(=O)C1
85 to 87	O=C(O)Cc1ccc(S(=O)(=O)Cl)s1
40 to 42	CN1CCCN(c2ccc(C#N)cc2Cl)CC1
152 to 160	O=C(NO)c1ccc(Br)s1
116 to 118	Oc1cccc2c1NCCC2
162 to 165	Cc1c(C=O)c(=O)n(-c2ccccc2)n1C
97 to 99	CC(C)c1ccsc1C(=O)O
215 to 217	CCNc1nc(C(=O)O)cs1
51 to 53	CC(C)(Cc1ccccc1)NC(=O)OC(C)(C)C
129 to 131	COc1ccc(NC(=O)c2ccccc2N)cn1
48 to 50	N#Cc1ccccc1N1CCOCC1
177 to 179	CCn1c(C(=O)O)cc2ccccc21
177 to 179	CN(C)S(=O)(=O)c1ccc(C(=O)O)o1

melting point [°C]	Structure (SMILES)
63 to 65	CC(C)Cn1[nH]ccc1=NC(=O)OCC(F)(F)F
197 to 199	Cc1ccc(S(=O)(=O)N2CCCCC2)cc1C(=O)O
119 to 121	CCc1cc(C(=O)O)nn1C
30 to 32	CCOc1cc(C=O)ccc1OC(F)F
144 to 150	CCC1(C)NC(=O)NC1=O (stereo unspecified)
229 to 231	Cc1nn(-c2ccc(F)cc2F)c(C)c1C(=O)O
76 to 78	CNC1CCCN(c2ccccc2)C1=O (stereo unspecified)
42 to 44	Cc1cc(CO)ccc1Cl
111 to 113	O=[N+]([O-])c1cc(O)cc(F)c1
80 to 82	COc1ccc(C(N)c2cccc(S(C)(=O)=O)c2)cc1 (stereo unspecified)
153 to 155	NS(=O)(=O)C=Cc1cccc(Br)c1
75 to 77	O=C(c1ccccc1)c1ccc(Cl)cc1O
40 to 42	COc1ccc(NS(=O)(=O)c2ccc(N3CCCC3)c(N)c2)cc1
170 to 172	CC(=O)Nc1ccc(C)cc1O
131 to 133	CCOC(=O)/C(C#N)=C\Nc1cc(C)ccc1OC
174 to 176	C#CCNC(=O)Nc1ccc(C)cc1
121 to 123	CN(C)S(=O)(=O)c1ccc2c(c1)NCC2
307 to 309	O=c1[nH]c(N2CCOCC2)nc2scc(-c3ccccc3)c12
194 to 196	Cc1sc2ncn(CCC(=O)O)c(=O)c2c1C
65 to 67	OCc1ccccc1Oc1ccc(I)cc1
44 to 48	CNC(C)c1ccc(-n2cncn2)cc1 (stereo unspecified)
182 to 184	Nc1cccc(-c2nnc[nH]2)c1
160 to 162	O=C(O)c1cc(F)c(O)c(F)c1
102 to 104	O=C1COc2c(F)cc(Br)cc21

melting point [°C]	Structure (SMILES)
243 to 245	O=C1NC(=O)C2(CCSC2)N1 (stereo unspecified)
133 to 135	Nc1ccc(C(=O)N2CCCCCC2)cc1
177 to 179	Nc1ccc(Oc2ccc(Cl)cc2)cc1C(=O)O
144 to 146	Cc1ccc(Nc2ncccc2N)cc1
82 to 84	CCOc1ccc(S(=O)(=O)N(C)c2ccc(OCC(=O)O)cc2)cc1
109 to 111	O=C1C=C2NCCC=C2O1
105 to 107	NC(=O)CCc1ccc(F)cc1
103 to 105	CNCc1ccc(O)cc1
229 to 231	O=C(O)c1cccc(NC(=O)c2ccc(Br)o2)c1
100 to 102	Cc1ccc(CC(=O)c2ccc(C)cc2)cc1
227 to 228	CNC(=Nc1cc(C)nn1-c1ccccc1)c1ccc(F)cc1
365 to 367	O=C(O)c1ccc2c(=O)n(-c3cccc(Cl)c3)c(=O)[nH]c2c1
60 to 62	CC(C)Oc1c(F)cc(N)cc1F
97 to 99	Nc1oncc1-c1ccccc1
133 to 135	O=C(O)CSC(=Cc1ccco1)c1nc2ccccc2s1
147 to 149	COc1ccc(N)cc1NC(=O)C1CCCCC1
94 to 96	O=[N+]([O-])c1cc(CCl)c2c(c1)COCO2
292 to 295	O=S(=O)(c1ccc(Cl)c(C(F)(F)F)c1)N1CCNCC1
143 to 145	CC(C(=O)O)n1nnc(-c2ccccc2)n1 (stereo unspecified)
147 to 149	Cc1csc(N2CCCC(C(=O)O)C2)n1 (stereo unspecified)
145 to 147	CSCc1ccc(C(=O)O)cc1
230 to 232	Cc1c[nH]c(=O)n1-c1ccc(C#N)cc1
149 to 151	Cc1cc(C(=O)O)c(Cl)cc1F
139 to 141	O=C(O)C1CCCN1c1ncccn1 (stereo unspecified)

melting point [°C]	Structure (SMILES)
134 to 136	Nc1cccc(NC(=O)c2cccs2)c1
206 to 208	Nc1ccc(C(=O)O)nc1Br
216 to 218	NC(=O)c1c[nH]c(C2CC2)n1
58 to 60	Cc1ccc(CCC(=O)O)o1
219 to 221	O=C1CCCc2cc(O)ccc2N1
68 to 70	Cn1ccc(C(=O)c2ccc(F)cc2)n1
178 to 180	CC(C)Cc1ccc(C2(C)NC(=O)NC2=O)cc1 (stereo unspecified)
118 to 120	C#Cc1cccc(NC(=O)CBr)c1
131 to 135	CC(C)c1ccc(-n2ccnc2S)cc1
163 to 169	O=S(=O)(c1ccc(C(F)(F)F)cc1)N1CCNCC1
176 to 178	CC(C)(C)C1CCc2sc(-c3nnc(S)o3)cc2C1 (stereo unspecified)
118 to 120	CC(C)C(=O)N1CCCC1C(=O)O (stereo unspecified)
153 to 155	CCOC(=O)/C(C#N)=C/Nc1ccc(OC)cc1OC
201 to 203	NC(=O)NC(C(=O)O)c1ccccc1 (stereo unspecified)
96 to 98	Cc1ccc(C(=O)NC=C(Cl)Cl)cc1
125 to 127	COc1ccc(-c2cc(N)n(-c3cccc(C)c3)n2)cc1
189 to 191	Cc1ccc2c(c1)nc(S)n2Cc1ccccc1Cl
127 to 129	CC(=O)c1ccc(N2CCC(O)CC2)cc1
84 to 86	NC(=S)C1CCCC1
250 to 252	O=C1NC(=O)C2(CCC(c3ccccc3)CC2)N1 (stereo unspecified)
231 to 233	O=C(c1ccccn1)N1CCNCC1
60 to 62	CC(C)(C)OC(=O)N1CC[C@H](O)C1
166 to 168	Cc1nc2c(cnn2C(C)C)cc1C(=O)O
176 to 178	O=C(O)C1CCCc2[nH]ncc21 (stereo unspecified)

Structure (SMILES)	melting point [°C]
Cc1cc(C(=O)CCl)c(C)[nH]1	143 to 145
N#Cc1ccsc1NC(=O)CCl	160 to 170
